Where a name gives a salt, the structure may show the parent alone.

As usually defined, the IC50 is the concentration at which inhibition is half-maximal. A low value points to higher potency.

One assay has as its system human and animal plasma. Put plainly: Determination of anticoagulatory activity: activated partial thromboplastin time (aPTT) in plasma. Conditions: concentration of test substance which brings about a 1.5-fold extension of the aPTT; plasma species not given. The essentials:
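Citrated plasma (1:9, 0.11 M citrate; 4000 g, 15 min) from human or animal blood incubated with test compound and cephalin/kaolin PTT reagent for 3 min at 37° C.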

Another assay concerns the target T1, human factor XIa (Homo sapiens, UniProt P03951).
T1 construct: purchased Kordia
Description: Measurement of FXIa inhibition (fluorogenic peptide substrate Boc-Glu(OBzl)-Ala-Arg-AMC). The conditions noted are these: factor XIa from Kordia, 15 min preincubation, 30 min at 22° C., fluorescence. It is filed as biochemical. The essentials:
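Released AMC fluorescence (360/460 nm) read after 30 min at 22 °C. The reaction was started with Boc-Glu(OBzl)-Ala-Arg-AMC (10 μM stock) after a 15 min preincubation of the enzyme (0.45 nM stock) with compound (final 50 μM to 0.00013 μM).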

T1 sequence (P03951 388-625 limits assumed): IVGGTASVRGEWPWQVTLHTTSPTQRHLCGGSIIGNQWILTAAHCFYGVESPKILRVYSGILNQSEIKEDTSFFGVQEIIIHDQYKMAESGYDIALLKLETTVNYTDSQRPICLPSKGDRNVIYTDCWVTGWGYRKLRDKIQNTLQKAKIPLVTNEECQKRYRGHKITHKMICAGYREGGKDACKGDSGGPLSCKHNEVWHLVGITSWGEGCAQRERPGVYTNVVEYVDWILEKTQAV
T1 sequence (P03951 19-387 partner limits assumed): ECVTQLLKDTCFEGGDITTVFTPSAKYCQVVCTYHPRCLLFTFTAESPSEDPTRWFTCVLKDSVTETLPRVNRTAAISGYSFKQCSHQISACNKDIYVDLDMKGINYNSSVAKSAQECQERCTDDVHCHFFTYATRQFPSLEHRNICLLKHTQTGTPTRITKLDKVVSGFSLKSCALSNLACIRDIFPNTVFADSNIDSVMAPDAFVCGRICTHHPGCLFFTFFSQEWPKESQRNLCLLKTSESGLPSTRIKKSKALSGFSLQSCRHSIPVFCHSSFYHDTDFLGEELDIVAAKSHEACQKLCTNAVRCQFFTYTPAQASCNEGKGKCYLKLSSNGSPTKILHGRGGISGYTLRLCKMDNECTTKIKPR

`Cc1cc(C(=O)N[C@H]2CC[C@H](N)CC2)ccc1-c1ccc(C[C@H](NC(=O)[C@H]2CC[C@H](CN)CC2)C(=O)Nc2ccc3[nH]c(C(F)(F)C(F)(F)F)nc3c2)cc1` [Example 79, N-(trans-4-Aminocyclohexyl)-4′-[(2S)-2-({[trans-4-(aminomethyl)cyclohexyl]carbonyl}amino)-3-oxo-3-{[2-(pentafluoroethyl)-1H-benzimidazol-5-yl]amino}propyl]-2-methylbiphenyl-4-carboxamide hydrochloride]: in the assay on human and animal plasma, the “aPTT” value came to 0.21 µmol/L. The same compound returned an IC50 at human factor XIa of 12 nM.
With `Cc1cc(C(=O)N[C@@H]2CCNC2)ccc1-c1ccc(C[C@H](NC(=O)[C@H]2CC[C@H](CN)CC2)C(=O)Nc2ccc3[nH]c(C(F)(F)C(F)(F)F)nc3c2)cc1` [Example 80, 4′-[(2S)-2-({[trans-4-(Aminomethyl)cyclohexyl]carbonyl}amino)-3-oxo-3-{[2-(pentafluoroethyl)-1H-benzimidazol-5-yl]amino}propyl]-2-methyl-N-[(3R)-pyrrolidin-3-yl]biphenyl-4-carboxamide hydrochloride], the “aPTT” value with human and animal plasma turned out to be 0.41 µmol/L. At human factor XIa, this compound gave an IC50 of 17 nM.
In the case of `Cc1cc(C(=O)NCCCN(C)C)ccc1-c1ccc(C[C@H](NC(=O)[C@H]2CC[C@H](CN)CC2)C(=O)Nc2ccc3[nH]c(C(F)(F)C(F)(F)F)nc3c2)cc1` [Example 81, 4′-[(2S)-2-({[trans-4-(Aminomethyl)cyclohexyl]carbonyl}amino)-3-oxo-3-{[2-(pentafluoroethyl)-1H-benzimidazol-5-yl]amino}propyl]-N-[3-(dimethylamino)propyl]-2-methylbiphenyl-4-carboxamide hydrochloride], the “aPTT” value in the assay with human and animal plasma was determined as 0.41 µmol/L. The compound also returned an IC50 on human factor XIa of 22 nM.
In the same order, the values of `Cc1cc(C(=O)NC2CCN(C)CC2)ccc1-c1ccc(C[C@H](NC(=O)[C@H]2CC[C@H](CN)CC2)C(=O)Nc2ccc3[nH]c(C(F)(F)C(F)(F)F)nc3c2)cc1` [Example 82, 4′-[(2S)-2-({[trans-4-(Aminomethyl)cyclohexyl]carbonyl}amino)-3-oxo-3-{[2-(pentafluoroethyl)-1H-benzimidazol-5-yl]amino}propyl]-2-methyl-N-(1-methylpiperidin-4-yl)biphenyl-4-carboxamide hydrochloride] are 0.39 µmol/L and 21 nM.
For the compound `Cc1cc(C(=O)N[C@H]2CCNC2)ccc1-c1ccc(C[C@H](NC(=O)[C@H]2CC[C@H](CN)CC2)C(=O)Nc2ccc(-c3nnc(Cl)[nH]3)cc2)cc1` [Example 83, 4′-[(2S)-2-({[trans-4-(Aminomethyl)cyclohexyl]carbonyl}amino)-3-{[4-(3-chloro-4H-1,2,4-triazol-5-yl)phenyl]amino}-3-oxopropyl]-2-methyl-N-[(3S)-pyrrolidin-3-yl]biphenyl-4-carboxamide hydrochloride], the “aPTT” value in the assay with human and animal plasma was found to be 0.09 µmol/L. Besides, the IC50 against human factor XIa was determined as 2.5 nM.
In the same order, the values of `Cc1cc(C(=O)NC2CCNCC2)ccc1-c1ccc(C[C@H](NC(=O)[C@H]2CC[C@H](CN)CC2)C(=O)Nc2ccc(-c3c[nH]cn3)cc2)cc1` [Example 84, 4′-[(2S)-2-({[trans-4-(Aminomethyl)cyclohexyl]carbonyl}amino)-3-{[4-(1H-imidazol-4-yl)phenyl]amino}-3-oxopropyl]-2-methyl-N-(piperidin-4-yl)biphenyl-4-carboxamide hydrochloride] are 0.3 µmol/L and 18 nM.
For `Cc1cc(C(=O)NC2CCNCC2)ccc1-c1ccc(C[C@H](NC(=O)[C@H]2CC[C@H](CN)CC2)C(=O)Nc2ccc3nc(C(F)(F)C(F)(F)C(F)(F)F)[nH]c3c2)cc1` [Example 85, 4′-[(2S)-2-({[trans-4-(Aminomethyl)cyclohexyl]carbonyl}amino)-3-{[2-(heptafluoropropyl)-1H-benzimidazol-6-yl]amino}-3-oxopropyl]-2-methyl-N-(piperidin-4-yl)biphenyl-4-carboxamide hydrochloride], in the assay on human and animal plasma, the “aPTT” value came out at 0.12 µmol/L. Moreover, the IC50 against human factor XIa was 16 nM.
As for `Cc1cc(C(=O)NC2CCNCC2)ccc1-c1ccc(C[C@H](NC(=O)[C@H]2CC[C@H](CN)CC2)C(=O)Nc2ccc3nc(C(F)F)[nH]c3c2)cc1` [Example 86, 4′-[(2S)-2-({[trans-4-(Aminomethyl)cyclohexyl]carbonyl}amino)-3-{[2-(difluoromethyl)-1H-benzimidazol-6-yl]amino}-3-oxopropyl]-2-methyl-N-(piperidin-4-yl)biphenyl-4-carboxamide hydrochloride], the “aPTT” value in the assay on human and animal plasma amounted to 0.14 µmol/L. In addition, on human factor XIa, it took 13 nM to reach half-maximal inhibition (IC50).
In the same order, the values of `Cc1cc(C(=O)NC2CCC(N(C)C)CC2)ccc1-c1ccc(C[C@H](NC(=O)[C@H]2CC[C@H](CN)CC2)C(=O)Nc2ccc(-c3nc(C(F)(F)C(F)(F)C(F)(F)F)n[nH]3)cc2)cc1` (stereo partly drawn) [Example 87, 4′-[(2S)-2-({[trans-4-(Aminomethyl)cyclohexyl]carbonyl}amino)-3-({4-[3-(heptafluoropropyl)-1H-1,2,4-triazol-5-yl]phenyl}amino)-3-oxopropyl]-N-[4-(dimethylamino)cyclohexyl]-2-methylbiphenyl-4-carboxamide hydrochloride] are 0.47 µmol/L and 2.8 nM.
In the same order, the values of `Cc1cc(C(=O)NC2CCCNC2=O)ccc1-c1ccc(C[C@H](NC(=O)[C@H]2CC[C@H](CN)CC2)C(=O)Nc2ccc(-c3nc(C(F)(F)C(F)(F)C(F)(F)F)n[nH]3)cc2)cc1` (stereo partly drawn) [Example 88, 4′-[(2S)-2-({[trans-4-(Aminomethyl)cyclohexyl]carbonyl}amino)-3-({4-[3-(heptafluoropropyl)-1H-1,2,4-triazol-5-yl]phenyl}amino)-3-oxopropyl]-2-methyl-N-(2-oxopiperidin-3-yl)biphenyl-4-carboxamide hydrochloride] are 0.31 µmol/L and 2.1 nM.
Regarding `Cc1cc(C(=O)NC2CCN(C(C)C)CC2)ccc1-c1ccc(C[C@H](NC(=O)[C@H]2CC[C@H](CN)CC2)C(=O)Nc2ccc(-c3nn[nH]n3)c(F)c2)cc1` [Example 89, 4′-[(2S)-2-({[trans-4-(Aminomethyl)cyclohexyl]carbonyl}amino)-3-{[3-fluoro-4-(2H-tetrazol-5-yl)phenyl]amino}-3-oxopropyl]-N-(1-isopropylpiperidin-4-yl)-2-methylbiphenyl-4-carboxamide hydrochloride], in the assay with human and animal plasma, the “aPTT” value amounted to 0.03 µmol/L. This compound had an IC50 at human factor XIa of 4.3 nM.
Consider `Cc1cc(C(=O)NC2CNCC(F)(F)C2)ccc1-c1ccc(C[C@H](NC(=O)[C@H]2CC[C@H](CN)CC2)C(=O)Nc2ccc(-c3nn[nH]n3)c(F)c2)cc1` (stereo partly drawn) [Example 90, 4′-[(2S)-2-({[trans-4-(Aminomethyl)cyclohexyl]carbonyl}amino)-3-{[3-fluoro-4-(2H-tetrazol-5-yl)phenyl]amino}-3-oxopropyl]-N-(5,5-difluoropiperidin-3-yl)-2-methylbiphenyl-4-carboxamide hydrochloride], for which the “aPTT” value in the assay on human and animal plasma was found to be 0.06 µmol/L. Moreover, half-maximal inhibition against human factor XIa (IC50) required 1.6 nM.
In the case of `Cl.NC[C@H]1CC[C@H](C(=O)N[C@@H](Cc2ccc(-c3ccc(C(=O)NCCN4CCCC4)cc3)cc2)C(=O)Nc2ccc(-c3nnn[nH]3)cc2)CC1` [Example 91, 4′-[(2S)-2-({[trans-4-(Aminomethyl)cyclohexyl]carbonyl}amino)-3-oxo-3-{[4-(1H-tetrazol-5-yl)phenyl]amino}propyl]-N-[2-(pyrrolidin-1-yl)ethyl]biphenyl-4-carboxamide hydrochloride], the “aPTT” value with human and animal plasma came out at 0.14 µmol/L. At human factor XIa, the IC50 was found to be 7.2 nM.
In the same order, the values of `Cc1cc(C(=O)N[C@H]2CCCNC2=O)ccc1-c1ccc(C[C@H](NC(=O)[C@H]2CC[C@H](CN)CC2)C(=O)Nc2ccc3c(Cl)n[nH]c3c2)cc1` [Example 93, 4′-{(2S)-2-({[trans-4-(Aminomethyl)cyclohexyl]carbonyl}amino)-3-[(3-chloro-1H-indazol-6-yl)amino]-3-oxopropyl}-2-methyl-N-[(3S)-2-oxopiperidin-3-yl]biphenyl-4-carboxamide hydrochloride] are 0.21 µmol/L and 2.4 nM.
As to `CCN(CC)C1CCC(NC(=O)c2ccc(-c3ccc(C[C@H](NC(=O)[C@H]4CC[C@H](CN)CC4)C(=O)Nc4ccc5c(Cl)n[nH]c5c4)cc3)c(C)c2)CC1` (stereo partly drawn) [Example 94, 4′-{(2S)-2-({[trans-4-(Aminomethyl)cyclohexyl]carbonyl}amino)-3-[(3-chloro-1H-indazol-6-yl)amino]-3-oxopropyl}-N-[4-(diethylamino)cyclohexyl]-2-methylbiphenyl-4-carboxamide hydrochloride], the “aPTT” value in the assay with human and animal plasma turned out to be 0.23 µmol/L. The IC50 against human factor XIa turned out to be 9.2 nM.
In the same order, the values of `Cc1cc(-c2ccc(C[C@H](NC(=O)[C@H]3CC[C@H](CN)CC3)C(=O)Nc3ccc(-c4nnn[nH]4)cc3)cc2)ccc1C(=O)NC1CC1` [Example 95, 4′-[(2S)-2-({[trans-4-(Aminomethyl)cyclohexyl]carbonyl}amino)-3-oxo-3-{[4-(1H-tetrazol-5-yl)phenyl]amino}propyl]-N-cyclopropyl-3-methylbiphenyl-4-carboxamide hydrochloride] are 0.33 µmol/L and 2.4 nM.
For the compound `Cc1cc(C(=O)N[C@@H]2C[C@@H](CO)NC2=O)ccc1-c1ccc(C[C@H](NC(=O)[C@H]2CC[C@H](CN)CC2)C(=O)Nc2ccc3[nH]c(=O)[nH]c3c2)cc1` [Example 97, 4′-{(2S)-2-({[trans-4-(Aminomethyl)cyclohexyl]carbonyl}amino)-3-oxo-3-[(2-oxo-2,3-dihydro-1H-benzimidazol-5-yl)amino]propyl}-N-[(3R,5S)-5-(hydroxymethyl)-2-oxopyrrolidin-3-yl]-2-methylbiphenyl-4-carboxamide hydrochloride], the “aPTT” value in the assay on human and animal plasma is 0.06 µmol/L. The same compound returned an IC50 on human factor XIa of 3.2 nM.

(Values after US20160272617A1, “SUBSTITUTED PHENYLALANINE DERIVATIVES” (BAYER PHARMA AKTIENGESELLSCHAFT, priority 2013, published 2016).)
